Test results reported in ChEMBL document CHEMBL1201862, “PubChem BioAssay data set” (2004).
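Dose response: 5 concentrations. Exposure: 48 h. Format: 96-well plates. Endpoint: linear interpolation; highest concentration if not reached. GI50 marks 50% less growth.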 The source made the active and inactive calls. No stated cut-off is given here; in the data, active = GI50 up to about 1.1 µM and inactive = higher.

What was measured:
Assay in all cases: NCI anticancer screen, dose series, 48 h
CCRF-CEM = system: CCRF-CEM
NCI-H23 = system: NCI-H23
NCI-H460 = system: NCI-H460
SF-539 = system: SF-539
M14 = system: M14
ACHN = system: ACHN
RPMI-8226 = system: RPMI-8226
T47D = system: T47D
MDA-MB-231 = system: MDA-MB-231
SF-295 = system: SF-295
MDA-N = system: MDA-N
SNB-19 = system: SNB-19
HCC 2998 = system: HCC 2998
OVCAR-5 = system: OVCAR-5
HCT-116 = system: HCT-116
UACC-62 = system: UACC-62
HL-60 = system: HL-60
IGROV-1 = system: IGROV-1
MDA-MB-435 = system: MDA-MB-435
MOLT-4 = system: MOLT-4

SMILES | GI50 (CCRF-CEM) | GI50 (NCI-H23) | GI50 (NCI-H460) | GI50 (SF-539) | GI50 (M14) | GI50 (ACHN) | GI50 (RPMI-8226) | GI50 (T47D) | GI50 (MDA-MB-231) | GI50 (SF-295) | GI50 (MDA-N) | GI50 (SNB-19) | GI50 (HCC 2998) | GI50 (OVCAR-5) | GI50 (HCT-116) | GI50 (UACC-62) | GI50 (HL-60) | GI50 (IGROV-1) | GI50 (MDA-MB-435) | GI50 (MOLT-4)
O=C(SCc1cccc2ccccc12)c1ccc(Cl)cc1 | > 100 µM (inactive) | 95.3 µM (inactive) | 49 µM (inactive) | > 100 µM (inactive) | > 100 µM (inactive) | > 100 µM (inactive) | 46.9 µM (inactive) | 81.7 µM (inactive) | > 100 µM (inactive) | > 100 µM (inactive) | > 100 µM (inactive) | > 100 µM (inactive) | > 100 µM (inactive) | > 100 µM (inactive) | 66.1 µM (inactive) | > 100 µM (inactive) | 48.5 µM (inactive) | > 100 µM (inactive) | 97.1 µM (inactive) | 
COC(=O)[C@H](Cc1ccccc1)NP(=O)(O)OCC1OC(n2cc(C)c(=O)[nH]c2=O)CC1N=[N+]=[N-] (some centres undefined) | > 100 µM (inactive) | > 100 µM (inactive) | > 100 µM (inactive) | > 100 µM (inactive) | > 100 µM (inactive) | > 100 µM (inactive) | > 100 µM (inactive) | > 100 µM (inactive) | > 100 µM (inactive) | > 100 µM (inactive) | > 100 µM (inactive) | > 100 µM (inactive) | > 100 µM (inactive) | > 100 µM (inactive) | > 100 µM (inactive) |  | > 100 µM (inactive) | > 100 µM (inactive) | > 100 µM (inactive) | > 100 µM (inactive)
CC1OC(OC2C(Oc3cc(O)c4c(c3)O[C@H](c3ccc(O)cc3)CC4=O)OC(CO)C(O)C2O)C(O)C(O)C1O (some centres undefined) | > 100 µM (inactive) | > 100 µM (inactive) |  | > 100 µM (inactive) | > 100 µM (inactive) | > 100 µM (inactive) | > 100 µM (inactive) | > 100 µM (inactive) | > 100 µM (inactive) | > 100 µM (inactive) | > 100 µM (inactive) |  | > 100 µM (inactive) | > 100 µM (inactive) | > 100 µM (inactive) | > 100 µM (inactive) | > 100 µM (inactive) | > 100 µM (inactive) | > 100 µM (inactive) | > 100 µM (inactive)
Nn1c(CCCCCCCCc2nnc(-c3c(O)ccc4ccccc34)n2N)nnc1-c1c(O)ccc2ccccc12 |  | > 100 µM (inactive) | > 100 µM (inactive) | > 100 µM (inactive) | > 100 µM (inactive) | > 100 µM (inactive) | > 100 µM (inactive) | > 100 µM (inactive) | > 100 µM (inactive) | > 100 µM (inactive) | > 100 µM (inactive) | > 100 µM (inactive) | > 100 µM (inactive) | > 100 µM (inactive) | > 100 µM (inactive) | > 100 µM (inactive) | > 100 µM (inactive) | > 100 µM (inactive) | > 100 µM (inactive) | > 100 µM (inactive)
O=C(O)CCCc1ccc2c(c1)CC1(C2)Cc2ccc(CCCC(=O)O)cc2C1 | > 100 µM (inactive) | > 100 µM (inactive) |  | > 100 µM (inactive) | > 100 µM (inactive) | > 100 µM (inactive) | > 100 µM (inactive) | > 100 µM (inactive) | > 100 µM (inactive) | > 100 µM (inactive) | > 100 µM (inactive) |  | > 100 µM (inactive) | > 100 µM (inactive) | > 100 µM (inactive) | > 100 µM (inactive) | > 100 µM (inactive) | > 100 µM (inactive) | > 100 µM (inactive) | > 100 µM (inactive)
CC(NC(=O)C(N)CC(=O)O)NC(=O)N1CCCC1 (centres undefined) | > 100 µM (inactive) | > 100 µM (inactive) | > 100 µM (inactive) | > 100 µM (inactive) | > 100 µM (inactive) | > 100 µM (inactive) | > 100 µM (inactive) | > 100 µM (inactive) | > 100 µM (inactive) | > 100 µM (inactive) | > 100 µM (inactive) | > 100 µM (inactive) | > 100 µM (inactive) | > 100 µM (inactive) | > 100 µM (inactive) | > 100 µM (inactive) |  | > 100 µM (inactive) | > 100 µM (inactive) | > 100 µM (inactive)
CCCC[Si](CCCC)(CCCC)O[C@@H](/C=C/C(=O)OCC)[C@H](Cc1ccccc1)O[Si](CCCC)(CCCC)CCCC | > 100 µM (inactive) | > 100 µM (inactive) | > 100 µM (inactive) | > 100 µM (inactive) |  | > 100 µM (inactive) | > 100 µM (inactive) | > 100 µM (inactive) | > 100 µM (inactive) | > 100 µM (inactive) | > 100 µM (inactive) | > 100 µM (inactive) | > 100 µM (inactive) | > 100 µM (inactive) | > 100 µM (inactive) | > 100 µM (inactive) |  | > 100 µM (inactive) | > 100 µM (inactive) | > 100 µM (inactive)
CC[C@@]1(O)C(=O)OCc2c1cc1n(c2=O)Cc2c-1nc1ccccc1c2/C=N\NC(=O)C(C)N (some centres undefined) | < 0.01 µM (active) | < 0.0214 µM (active) | < 0.0243 µM (active) | < 0.0116 µM (active) | 0.254 µM (active) | < 0.0216 µM (active) |  | < 0.0157 µM (active) | 27 µM (inactive) | < 0.0371 µM (active) | 1.34 µM (inactive) | 0.0233 µM (active) | 0.332 µM (active) | 6.71 µM (inactive) | 0.186 µM (active) | < 0.01 µM (active) | < 0.028 µM (active) | 1.13 µM (inactive) | 1.61 µM (inactive) | < 0.0158 µM (active)
Nc1nc(N)c(N=O)c(Nc2ccc(O)cc2)n1 | 14.9 µM (inactive) | 49.9 µM (inactive) | > 61.1 µM (inactive) | 6.56 µM (inactive) | 6.05 µM (inactive) | 46.2 µM (inactive) | > 44.4 µM (inactive) | 14.9 µM (inactive) | > 58.3 µM (inactive) | > 44.7 µM (inactive) | 28.8 µM (inactive) | > 52 µM (inactive) | 72.3 µM (inactive) |  | > 73.3 µM (inactive) | 41 µM (inactive) | 9.53 µM (inactive) | 7.82 µM (inactive) | 38.7 µM (inactive) | 16.1 µM (inactive)
CCCC1(N2C(=O)c3ccc4c5c(ccc(c35)C2=O)N(C2(CCC)CCCCC2)C4=O)CCCCC1 |  | > 100 µM (inactive) | > 100 µM (inactive) | > 100 µM (inactive) | > 100 µM (inactive) | > 100 µM (inactive) | > 100 µM (inactive) | > 100 µM (inactive) | > 100 µM (inactive) | > 100 µM (inactive) | > 100 µM (inactive) | > 100 µM (inactive) | > 100 µM (inactive) | > 100 µM (inactive) | > 100 µM (inactive) | > 100 µM (inactive) |  |  | > 100 µM (inactive) | > 100 µM (inactive)
O=[N+]([O-])c1cc(Cl)cc2cc(Br)cnc12 | > 31.6 µM (inactive) | 26.9 µM (inactive) | > 31.6 µM (inactive) | > 31.6 µM (inactive) | > 31.6 µM (inactive) | > 31.6 µM (inactive) | > 31.6 µM (inactive) | > 31.6 µM (inactive) | 21.1 µM (inactive) | 21.9 µM (inactive) | > 31.6 µM (inactive) | 27.8 µM (inactive) | > 31.6 µM (inactive) | > 31.6 µM (inactive) | > 31.6 µM (inactive) | 23.2 µM (inactive) | > 31.6 µM (inactive) |  | > 31.6 µM (inactive) | > 31.6 µM (inactive)
O=c1oc2ccccc2c(Nc2ccc3c(c2)Sc2ccccc2O3)c1[N+](=O)[O-] | 31.7 µM (inactive) | 25.9 µM (inactive) | 17.3 µM (inactive) | 26.3 µM (inactive) | 27.4 µM (inactive) | 19.6 µM (inactive) | 13.7 µM (inactive) | 20.8 µM (inactive) | 21 µM (inactive) | 22.1 µM (inactive) | 30.9 µM (inactive) | 27 µM (inactive) | 20.4 µM (inactive) | 34.6 µM (inactive) | 25.5 µM (inactive) | 14.1 µM (inactive) | 29.7 µM (inactive) | 26.2 µM (inactive) | 29.2 µM (inactive) | 
O=C1C(CN2CCCCC2)CCCC1CN1CCCCC1 (centres undefined) |  | 22.9 µM (inactive) |  | 30.2 µM (inactive) | 20.7 µM (inactive) | 18 µM (inactive) | 2.24 µM (inactive) | 1.64 µM (inactive) | 18.5 µM (inactive) |  | 16 µM (inactive) |  | 51.3 µM (inactive) | > 55.6 µM (inactive) | 15.4 µM (inactive) | > 55.7 µM (inactive) |  | > 56.2 µM (inactive) | 17 µM (inactive) | 
CC(C)=NOC(=O)OC[C@H]1O[C@@H](n2cnc3c(N)ncnc32)C(O)C1O (some centres undefined) | > 100 µM (inactive) | > 100 µM (inactive) | 40.9 µM (inactive) | > 100 µM (inactive) | 87.7 µM (inactive) | > 100 µM (inactive) | 52 µM (inactive) | > 100 µM (inactive) | > 100 µM (inactive) | > 100 µM (inactive) | 43.3 µM (inactive) | > 100 µM (inactive) | > 100 µM (inactive) | > 100 µM (inactive) |  | > 10 µM (inactive) | 45.7 µM (inactive) | > 100 µM (inactive) | 82.6 µM (inactive) | > 100 µM (inactive)
C[C@H](OC(=O)/C=C/c1ccc(O)c(O)c1)[C@H](C)OC(=O)/C=C/c1ccc(O)c(O)c1 |  | 4.29 µM (inactive) | 4.11 µM (inactive) | 9.48 µM (inactive) | 6.19 µM (inactive) | 6.11 µM (inactive) | 9.59 µM (inactive) | 4.41 µM (inactive) | 10.9 µM (inactive) | 6.27 µM (inactive) | 4.45 µM (inactive) | 7.93 µM (inactive) | 11.5 µM (inactive) | 14 µM (inactive) | 3.72 µM (inactive) | 2.93 µM (inactive) |  | 5.2 µM (inactive) | 4.84 µM (inactive) | 2.49 µM (inactive)
